Holding throughout (assay type): binding
Parameters in all cases: KINOMEscan: ABL1(F317L)-phosphorylated / KINOMEscan: ABL1(H396P)-nonphosphorylated / KINOMEscan: ABL1(H396P)-phosphorylated / KINOMEscan: ABL1(M351T)-phosphorylated / KINOMEscan: ABL1(T315I)-phosphorylated / KINOMEscan: ABL1-nonphosphorylated / KINOMEscan: ABL1-phosphorylated / KINOMEscan: ACVR2A / KINOMEscan: ACVR2B / KINOMEscan: ADCK3 / KINOMEscan: ADCK4 / KINOMEscan: AKT1 / KINOMEscan: AKT3 / KINOMEscan: ALK / KINOMEscan: ARK5 / KINOMEscan: AURKA / KINOMEscan: AURKC / KINOMEscan: BIKE / KINOMEscan: BMPR1A / KINOMEscan: BMPR1B / KINOMEscan: BMX / KINOMEscan: BRK / KINOMEscan: BRSK1 / KINOMEscan: BRSK2 / KINOMEscan: CAMK1 / KINOMEscan: CAMK1D / KINOMEscan: CAMK1G / KINOMEscan: CAMK2A / KINOMEscan: CAMK2B / KINOMEscan: AAK1 / KINOMEscan: CAMK2D / KINOMEscan: CAMK2G / KINOMEscan: ABL1(F317I)-nonphosphorylated / KINOMEscan: ABL1(F317I)-phosphorylated / KINOMEscan: ABL1(F317L)-nonphosphorylated: unit: % Ctrl
Common to all, as to settings: Compound Concentration 10 µM

In assay [1] the target is T1, panel of 442 kinases (Homo sapiens, UniProt Q9UF33).
T1 sequence (Q9UF33 23-1036): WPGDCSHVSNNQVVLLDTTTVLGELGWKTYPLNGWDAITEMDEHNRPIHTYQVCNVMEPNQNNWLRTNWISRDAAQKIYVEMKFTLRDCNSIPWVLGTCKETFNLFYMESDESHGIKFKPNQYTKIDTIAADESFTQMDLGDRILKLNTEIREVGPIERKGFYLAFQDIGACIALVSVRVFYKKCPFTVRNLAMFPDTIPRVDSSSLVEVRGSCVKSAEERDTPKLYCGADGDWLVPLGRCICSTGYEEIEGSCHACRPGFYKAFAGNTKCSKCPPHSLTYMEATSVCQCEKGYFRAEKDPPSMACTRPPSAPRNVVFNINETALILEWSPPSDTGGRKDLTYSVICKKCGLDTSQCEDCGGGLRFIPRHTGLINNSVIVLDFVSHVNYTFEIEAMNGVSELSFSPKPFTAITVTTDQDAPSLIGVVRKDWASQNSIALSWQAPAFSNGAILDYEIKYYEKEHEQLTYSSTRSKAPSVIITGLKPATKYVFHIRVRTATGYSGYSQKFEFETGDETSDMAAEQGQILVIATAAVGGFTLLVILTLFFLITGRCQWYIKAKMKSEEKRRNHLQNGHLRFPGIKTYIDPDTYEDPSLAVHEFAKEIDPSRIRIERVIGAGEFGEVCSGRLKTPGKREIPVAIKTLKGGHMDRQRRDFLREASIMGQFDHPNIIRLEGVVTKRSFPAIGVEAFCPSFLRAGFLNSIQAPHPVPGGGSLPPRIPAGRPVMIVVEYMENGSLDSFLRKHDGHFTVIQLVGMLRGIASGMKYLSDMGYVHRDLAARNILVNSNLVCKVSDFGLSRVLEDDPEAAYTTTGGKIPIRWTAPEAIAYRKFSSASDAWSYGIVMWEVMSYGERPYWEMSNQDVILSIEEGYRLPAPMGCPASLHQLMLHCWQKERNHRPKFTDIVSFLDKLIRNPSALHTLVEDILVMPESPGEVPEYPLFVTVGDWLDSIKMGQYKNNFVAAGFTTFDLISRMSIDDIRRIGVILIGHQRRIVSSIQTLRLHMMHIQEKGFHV
The source says: (§1) We assessed the selectivity of members of this scaffold using the KINOMEscan methodology across a near comprehensive panel of 442 kinases [[18,27]].

The target of assay [2] is T2, panel of 442 kinases (Homo sapiens, UniProt Q2M2I8).
T2 construct: purchased KINOMEscan
Text: as §1

Assay [3] addresses T3, panel of 442 kinases (Homo sapiens, UniProt P29317).
T3 construct: purchased KINOMEscan
Text: as §1

T2 sequence (Q2M2I8 whole entry): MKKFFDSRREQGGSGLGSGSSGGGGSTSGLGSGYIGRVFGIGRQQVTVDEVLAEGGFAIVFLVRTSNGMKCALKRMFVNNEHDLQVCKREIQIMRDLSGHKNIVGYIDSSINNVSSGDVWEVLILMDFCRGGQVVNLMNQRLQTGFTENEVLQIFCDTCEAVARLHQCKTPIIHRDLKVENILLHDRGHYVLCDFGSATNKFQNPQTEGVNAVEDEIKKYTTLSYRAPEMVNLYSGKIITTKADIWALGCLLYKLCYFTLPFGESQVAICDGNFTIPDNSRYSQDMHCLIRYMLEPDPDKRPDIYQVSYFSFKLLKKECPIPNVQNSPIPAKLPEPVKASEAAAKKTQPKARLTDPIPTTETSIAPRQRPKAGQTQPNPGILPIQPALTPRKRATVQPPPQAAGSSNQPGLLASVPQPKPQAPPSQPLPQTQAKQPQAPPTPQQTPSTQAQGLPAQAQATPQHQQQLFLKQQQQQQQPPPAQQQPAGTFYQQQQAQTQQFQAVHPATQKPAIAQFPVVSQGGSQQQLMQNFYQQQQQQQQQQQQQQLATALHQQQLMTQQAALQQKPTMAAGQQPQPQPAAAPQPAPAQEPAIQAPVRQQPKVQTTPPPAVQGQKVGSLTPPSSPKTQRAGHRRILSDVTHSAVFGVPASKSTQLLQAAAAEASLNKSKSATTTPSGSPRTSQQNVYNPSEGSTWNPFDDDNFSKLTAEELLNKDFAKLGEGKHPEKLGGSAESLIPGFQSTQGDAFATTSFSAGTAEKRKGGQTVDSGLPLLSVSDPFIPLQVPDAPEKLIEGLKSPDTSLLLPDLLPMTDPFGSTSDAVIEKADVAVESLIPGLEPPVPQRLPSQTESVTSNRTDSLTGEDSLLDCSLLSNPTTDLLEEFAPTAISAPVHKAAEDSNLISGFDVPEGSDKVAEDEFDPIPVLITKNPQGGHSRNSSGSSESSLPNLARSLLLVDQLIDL
T3 sequence (P29317 24-976): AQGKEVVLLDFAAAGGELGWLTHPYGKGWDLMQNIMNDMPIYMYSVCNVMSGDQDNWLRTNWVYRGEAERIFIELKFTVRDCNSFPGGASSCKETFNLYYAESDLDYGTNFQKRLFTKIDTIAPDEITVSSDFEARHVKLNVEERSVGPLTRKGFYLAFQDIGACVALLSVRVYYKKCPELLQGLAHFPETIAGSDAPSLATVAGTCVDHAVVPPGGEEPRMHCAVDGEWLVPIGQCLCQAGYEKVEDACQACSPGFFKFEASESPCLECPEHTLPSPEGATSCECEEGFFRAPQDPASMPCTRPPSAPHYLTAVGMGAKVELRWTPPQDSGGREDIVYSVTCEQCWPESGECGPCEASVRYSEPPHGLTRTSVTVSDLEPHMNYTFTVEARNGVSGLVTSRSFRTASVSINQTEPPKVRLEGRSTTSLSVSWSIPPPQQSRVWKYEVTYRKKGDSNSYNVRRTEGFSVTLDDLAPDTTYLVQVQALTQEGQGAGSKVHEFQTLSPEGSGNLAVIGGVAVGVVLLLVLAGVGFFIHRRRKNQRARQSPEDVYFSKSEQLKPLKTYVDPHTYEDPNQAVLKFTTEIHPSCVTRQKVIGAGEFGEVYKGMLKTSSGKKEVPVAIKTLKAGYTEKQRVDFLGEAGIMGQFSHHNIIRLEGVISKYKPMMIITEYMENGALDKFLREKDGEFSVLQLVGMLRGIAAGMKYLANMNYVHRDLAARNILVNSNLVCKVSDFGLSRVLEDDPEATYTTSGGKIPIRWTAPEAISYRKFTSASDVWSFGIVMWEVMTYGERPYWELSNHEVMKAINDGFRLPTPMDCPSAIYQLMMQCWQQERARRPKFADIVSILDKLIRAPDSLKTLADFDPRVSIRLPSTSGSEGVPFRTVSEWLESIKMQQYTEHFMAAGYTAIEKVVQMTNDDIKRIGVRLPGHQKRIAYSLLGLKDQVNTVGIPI

`COc1cc(C(=O)N2CCC(N3CCN(C)CC3)CC2)ccc1Nc1ncc2c(n1)N(C1CCCC1)c1ccccc1C(=O)N2C` [Compound 25, 11-cyclopentyl-2-((2-methoxy-4-(4-(4-methylpiperazin-1-yl)piperidine-1-carbonyl)phenyl)amino)-5-methyl-5H-benzo[e]pyrimido[5,4-b][1,4]diazepin-6(11H)-one]: the “KINOMEscan: EPHA6” value on panel of 442 kinases [1] came to 100. On panel of 442 kinases [2], the “KINOMEscan: AAK1” value is recorded as 89. Further, the “KINOMEscan: EPHA2” value on panel of 442 kinases [3] came out at 100.
As for `COc1cc(C(=O)N2CCC(N3CCN(C)CC3)CC2)ccc1Nc1ncc2c(n1)N1CCc3cccc(c31)C(=O)N2C` [Compound 24], on panel of 442 kinases [1], the “KINOMEscan: EPHA6” value was 97. For the same compound, on panel of 442 kinases [3], the “KINOMEscan: EPHA2” value was found to be 95.
`COc1cc(C(=O)N2CCC(N3CCN(C)CC3)CC2)ccc1Nc1ncc2c(n1)N(C)c1ccccc1C(=O)N2C` [15 (LRRK2-IN-1)]: on panel of 442 kinases [1], the “KINOMEscan: EPHA6” value worked out at 89. Further, at panel of 442 kinases [2], the “KINOMEscan: AAK1” value worked out at 84. The “KINOMEscan: EPHA2” value at panel of 442 kinases [3] worked out at 92.
For the compound `CCOc1cc(C(=O)N2CCC(N3CCN(C)CC3)CC2)ccc1Nc1ncc2c(n1)N(C1CCCC1)c1ccccc1C(=O)N2C` [Compound 26], the “KINOMEscan: EPHA6” value on panel of 442 kinases [1] is given as 100. In addition, at panel of 442 kinases [2], the “KINOMEscan: AAK1” value stood at 100. Besides, the “KINOMEscan: EPHA2” value at panel of 442 kinases [3] is given as 100.
